Results as given in patent US12077503B2, “Substituted cyclic amides and their use as herbicides” (FMC CORPORATION, priority 2015, dated 2024).

Legend:
Format in all cases: in vivo
[1] = tested on: barnyardgrass (Echinochloa crus-galli); assay: Test G Pre-Emergence Protocol; conditions: Echinochloa crus-galli, pre-emergence, 312 h, evaluated after 13 days; for pest or weed control at 15.625 g/ha: 15.625 g ai/ha; for pest or weed control at 15.625 g/ha / pest or weed control at 250 g/ha: read-out: Barnyardgrass damage rating (100=total damage to plant; 0=no damage to plant); for pest or weed control at 62.5 g/ha: 62.5 g ai/ha, 100=total damage to plant, 0=no damage to plant, read-out: Barnyardgrass damage rating; for pest or weed control at 250 g/ha: 250 g ai/ha
In short: (§1)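 Glasshouse pre-emergence test: soil-sown seeds, sprayed after 1 d at 15.625, 62.5 or 250 g/ha. Conditions 24/16° C day/night, 14 h light, 65% humidity, watering twice daily. Rating 13 d post-spray (100 = total damage).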

[2] = tested on: corn (Zea mays); assay: Test G Pre-Emergence Protocol; conditions: Zea mays, pre-emergence, 312 h, evaluated after 13 days; for plant injury at 15.625 g/ha: 15.625 g ai/ha; for plant injury at 15.625 g/ha / plant injury at 250 g/ha: read-out: Corn damage rating (100=total damage to plant; 0=no damage to plant); for plant injury at 62.5 g/ha: 62.5 g ai/ha, 100=total damage to plant, 0=no damage to plant, read-out: Corn damage rating; for plant injury at 250 g/ha: 250 g ai/ha
In short: as §1

[3] = tested on: giant foxtail (Setaria faberi); assay: Test G Pre-Emergence Protocol; conditions: Setaria faberi, pre-emergence, 312 h, evaluated after 13 days; for pest or weed control at 15.625 g/ha: 15.625 g ai/ha; for pest or weed control at 15.625 g/ha / pest or weed control at 250 g/ha: read-out: Foxtail, Giant damage rating (100=total damage to plant; 0=no damage to plant); for pest or weed control at 62.5 g/ha: 62.5 g ai/ha, 100=total damage to plant, 0=no damage to plant, read-out: Foxtail, Giant damage rating; for pest or weed control at 250 g/ha: 250 g ai/ha
In short: as §1

[4] = tested on: ivy-leaved morning glory (Ipomoea hederacea); assay: Test G Pre-Emergence Protocol; conditions: Ipomoea, pre-emergence, 312 h, evaluated after 13 days; for pest or weed control at 15.625 g/ha: 15.625 g ai/ha; for pest or weed control at 15.625 g/ha / pest or weed control at 250 g/ha: read-out: Morningglory, Ivy-leaved damage rating (100=total damage to plant; 0=no damage to plant); for pest or weed control at 62.5 g/ha: 62.5 g ai/ha, 100=total damage to plant, 0=no damage to plant, read-out: Morningglory, Ivy-leaved damage rating; for pest or weed control at 250 g/ha: 250 g ai/ha
In short: as §1

[5] = tested on: redroot pigweed (Amaranthus retroflexus); assay: Test G Pre-Emergence Protocol; conditions: Amaranthus retroflexus, pre-emergence, 312 h, evaluated after 13 days; for pest or weed control at 15.625 g/ha: 15.625 g ai/ha; for pest or weed control at 15.625 g/ha / pest or weed control at 250 g/ha: read-out: Pigweed, Redroot damage rating (100=total damage to plant; 0=no damage to plant); for pest or weed control at 62.5 g/ha: 62.5 g ai/ha, 100=total damage to plant, 0=no damage to plant, read-out: Pigweed, Redroot damage rating; for pest or weed control at 250 g/ha: 250 g ai/ha
In short: as §1

[6] = tested on: velvetleaf (Abutilon theophrasti); assay: Test G Pre-Emergence Protocol; conditions: Abutilon theophrasti, pre-emergence, 312 h, evaluated after 13 days; for pest or weed control at 15.625 g/ha: 15.625 g ai/ha; for pest or weed control at 15.625 g/ha / pest or weed control at 250 g/ha: read-out: Velvetleaf damage rating (100=total damage to plant; 0=no damage to plant); for pest or weed control at 62.5 g/ha: 62.5 g ai/ha, 100=total damage to plant, 0=no damage to plant, read-out: Velvetleaf damage rating; for pest or weed control at 250 g/ha: 250 g ai/ha
In short: as §1

[7] = tested on: barnyardgrass (Echinochloa crus-galli); assay: Test G Post-Emergence Protocol; conditions: Echinochloa crus-galli, post-emergence, 312 h, read-out: Barnyardgrass damage rating; for pest or weed control at 15.625 g/ha: 15.625 g ai/ha, evaluated after 13 days (100=total damage to plant; 0=no damage to plant); for pest or weed control at 62.5 g/ha: 62.5 g ai/ha; for pest or weed control at 62.5 g/ha / pest or weed control at 250 g/ha: evaluated after 13 days, 100=total damage to plant, 0=no damage to plant; for pest or weed control at 250 g/ha: 250 g ai/ha
In short: (§2)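 Damage was rated 13 days after treatment from 0 (none) to 100 (plant killed). Compound was applied as a spray at 15.625, 62.5 or 250 g/ha in 50:50 acetone/water containing 0.5% Tween 20, onto 8-day-old potted plants kept in a glasshouse (24/16 °C, 14 h light, 65% humidity).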

[8] = tested on: corn (Zea mays); assay: Test G Post-Emergence Protocol; conditions: Zea mays, post-emergence, 312 h, read-out: Corn damage rating; for plant injury at 15.625 g/ha: 15.625 g ai/ha, evaluated after 13 days (100=total damage to plant; 0=no damage to plant); for plant injury at 62.5 g/ha: 62.5 g ai/ha; for plant injury at 62.5 g/ha / plant injury at 250 g/ha: evaluated after 13 days, 100=total damage to plant, 0=no damage to plant; for plant injury at 250 g/ha: 250 g ai/ha
In short: as §2

[9] = tested on: giant foxtail (Setaria faberi); assay: Test G Post-Emergence Protocol; conditions: Setaria faberi, post-emergence, 312 h, read-out: Foxtail, Giant damage rating; for pest or weed control at 15.625 g/ha: 15.625 g ai/ha, evaluated after 13 days (100=total damage to plant; 0=no damage to plant); for pest or weed control at 62.5 g/ha: 62.5 g ai/ha; for pest or weed control at 62.5 g/ha / pest or weed control at 250 g/ha: evaluated after 13 days, 100=total damage to plant, 0=no damage to plant; for pest or weed control at 250 g/ha: 250 g ai/ha
In short: as §2

[10] = tested on: ivy-leaved morning glory (Ipomoea hederacea); assay: Test G Post-Emergence Protocol; conditions: Ipomoea, post-emergence, 312 h, read-out: Morningglory, Ivy-leaved damage rating; for pest or weed control at 15.625 g/ha: 15.625 g ai/ha, evaluated after 13 days (100=total damage to plant; 0=no damage to plant); for pest or weed control at 62.5 g/ha: 62.5 g ai/ha; for pest or weed control at 62.5 g/ha / pest or weed control at 250 g/ha: evaluated after 13 days, 100=total damage to plant, 0=no damage to plant; for pest or weed control at 250 g/ha: 250 g ai/ha
In short: as §2

[11] = tested on: redroot pigweed (Amaranthus retroflexus); assay: Test G Post-Emergence Protocol; conditions: Amaranthus retroflexus, post-emergence, 312 h, read-out: Pigweed, Redroot damage rating; for pest or weed control at 15.625 g/ha: 15.625 g ai/ha, evaluated after 13 days (100=total damage to plant; 0=no damage to plant); for pest or weed control at 62.5 g/ha: 62.5 g ai/ha; for pest or weed control at 62.5 g/ha / pest or weed control at 250 g/ha: evaluated after 13 days, 100=total damage to plant, 0=no damage to plant; for pest or weed control at 250 g/ha: 250 g ai/ha
In short: as §2

[12] = tested on: velvetleaf (Abutilon theophrasti); assay: Test G Post-Emergence Protocol; conditions: Abutilon theophrasti, post-emergence, 312 h, read-out: Velvetleaf damage rating; for pest or weed control at 15.625 g/ha: 15.625 g ai/ha, evaluated after 13 days (100=total damage to plant; 0=no damage to plant); for pest or weed control at 62.5 g/ha: 62.5 g ai/ha; for pest or weed control at 62.5 g/ha / pest or weed control at 250 g/ha: evaluated after 13 days, 100=total damage to plant, 0=no damage to plant; for pest or weed control at 250 g/ha: 250 g ai/ha
In short: as §2

SMILES | pest or weed control at 15.625 g/ha [1] | pest or weed control at 62.5 g/ha [1] | pest or weed control at 250 g/ha [1] | plant injury at 15.625 g/ha [2] | plant injury at 62.5 g/ha [2] | plant injury at 250 g/ha [2] | pest or weed control at 15.625 g/ha [3] | pest or weed control at 62.5 g/ha [3] | pest or weed control at 250 g/ha [3] | pest or weed control at 15.625 g/ha [4] | pest or weed control at 62.5 g/ha [4] | pest or weed control at 250 g/ha [4] | pest or weed control at 15.625 g/ha [5] | pest or weed control at 62.5 g/ha [5] | pest or weed control at 250 g/ha [5] | pest or weed control at 15.625 g/ha [6] | pest or weed control at 62.5 g/ha [6] | pest or weed control at 250 g/ha [6] | pest or weed control at 15.625 g/ha [7] | pest or weed control at 62.5 g/ha [7] | other results
Cc1c(F)cccc1NC(=O)[C@@H]1C(=O)N(C)C[C@H]1c1cc(Cl)c(F)c(Cl)c1 (racemic) [Compound 1792] | 30% | 70% | 80% | 0% | 20% | 50% | 80% | 80% | 90% | 0% | 0% | 0% | 0% | 0% | 0% | 0% | 0% | 0% | 30% | 70% | pest or weed control at 250 g/ha [7]: 70%; plant injury at 15.625 g/ha [8]: 20%; plant injury at 62.5 g/ha [8]: 40%; plant injury at 250 g/ha [8]: 60%; pest or weed control at 15.625 g/ha [9]: 70%; pest or weed control at 62.5 g/ha [9]: 80%; pest or weed control at 250 g/ha [9]: 80%; pest or weed control at 15.625 g/ha [10]: 10%; pest or weed control at 62.5 g/ha [10]: 30%; pest or weed control at 250 g/ha [10]: 40%; pest or weed control at 15.625 g/ha [11]: 0%; pest or weed control at 62.5 g/ha [11]: 0%; pest or weed control at 250 g/ha [11]: 0%; pest or weed control at 15.625 g/ha [12]: 0%; pest or weed control at 62.5 g/ha [12]: 20%; pest or weed control at 250 g/ha [12]: 40%
CN1C[C@H](c2ccc(C(F)(F)F)cc2)[C@@H](C(=O)Nc2cccnc2[N+](=O)[O-])C1=O (racemic) [Compound 1824] | 0% | 0% | 70% | 0% | 0% | 0% | 0% | 10% | 80% | 0% | 0% | 0% | 0% | 0% | 20% | 0% | 0% | 0% | 0% | 0% | pest or weed control at 250 g/ha [7]: 10%; plant injury at 15.625 g/ha [8]: 0%; plant injury at 62.5 g/ha [8]: 0%; plant injury at 250 g/ha [8]: 20%; pest or weed control at 15.625 g/ha [9]: 0%; pest or weed control at 62.5 g/ha [9]: 0%; pest or weed control at 250 g/ha [9]: 10%; pest or weed control at 15.625 g/ha [10]: 0%; pest or weed control at 62.5 g/ha [10]: 0%; pest or weed control at 250 g/ha [10]: 10%; pest or weed control at 15.625 g/ha [11]: 0%; pest or weed control at 62.5 g/ha [11]: 0%; pest or weed control at 250 g/ha [11]: 20%; pest or weed control at 15.625 g/ha [12]: 0%; pest or weed control at 62.5 g/ha [12]: 0%; pest or weed control at 250 g/ha [12]: 70%
